Results: PMC4660620, “Aspidosperma (Apocynaceae) plant cytotoxicity and activity towards malaria parasites. Part II: experimental studies with Aspidosperma ramiflorum in vivo and in vitro” (Memórias do Instituto Oswaldo Cruz, 2015)

Tested on: Plasmodium berghei, the NK65 strain
Assay: Drug suppressive test against P. berghei in mice
Format: in vivo, Plasmodium berghei in Swiss outbred mice
Protocol: Adult Swiss outbred mice (20 ± 2 g weigh) were inoculated by the intraperitoneal route with 1 × 10^5 red blood cells infected withP. berghei, the NK65 strain. Groups of 20-30 infected mice were kept together for 2-24 h, then were divided randomly in groups of up to six animals per cage and were treated by gavage for three consecutive days with 25 mg/Kg or 50 mg/Kg of the test compounds diluted in DMSO 3% (v/v). Two control groups were used and either received CQ (20 mg/kg, diluted in water) or the drug vehicle. Smears prepared from the tail blood of the mice on days 5-10 post-infection were methanol-fixed, stained with Giemsa and examined microscopically.

## CCN(CC)CCCC(C)Nc1ccnc2cc(Cl)ccc12 (stereo not drawn) [Chloroquine, chloroquine]
20 mg/kg, increase compared to survival of nontreated controls
  Mice survival (increase): > 8 days
mice, 20 mg/kg by gavage, three consecutive days
  Mice survival: > 30 days
mice, 20 mg/kg by gavage, three consecutive days, in relation to untreated mice
  Parasitaemia reduction at day 10: 100%
